The conditions of series [1]: Liquid; for Normal boiling temperature: Distillation.
Series [2] is described as follows: refractive index (Na D-line) (dimensionless). The conditions noted are these: 101.33 kPa, Liquid, Standard Abbe refractometry.

Numbers after ± are expanded uncertainties.

As a reminder, the refractive index is a measure of how strongly the sample bends light. As for `CCO` [ethanol], the Normal boiling temperature in series [1] was 78.29 ± 1.1 °C. In series [2] (293.2 K), the refractive index is listed as 1.36115 ± 0.0007.
As usually defined, the mass density is the mass of a sample divided by its volume. Take `C=CC(C)(CCC=C(C)C)OC(C)=O` (stereo not given) [linalool acetate]: the mass density in series [1] (293.2 K, 101.33 kPa, Vibrating tube method) was 895.06 ± 4.4 kg/m3. In series [1], the Normal boiling temperature is 220.00 ± 1.2 °C. Also, the refractive index in series [2] (294 K) stood at 1.45445 ± 0.0012.

These data come from the NIST ThermoML archive (doi:10.1021/je101035p).
